{"source": "paper PMC8910920", "about": "(International Journal of Molecular Sciences, 2022)", "key": {"CACO-2 cell monolayers": {"tested_on": "CACO-2 cell monolayers", "assay": "Caco-2 permeability", "assay_type": "in vitro ADME", "procedure": "These studies were subcontracted to Eurofins-CEREP or Eurofins-PANLABS. Briefly, agonists and antagonist assays were performed in cell cultures overexpressing the corresponding channel (CHO: TRPV1 and TRPA1; HEK293: TRPV3 and ASIC3). In vitro pharmacology, cellular channel functional assays: the compound was prepared in assay buffer to the final concentration, 10 μM. The compound wells, reference agonist and background vehicle controls were prepared in DMSO at 0.3%. The reference agonist for each Ion Channel assayed was prepared in a similar manner to serve as the assay control. The reference agonist for each Ion Channel was included at Emax (the concentration where the reference agonist elicited a maximal response). The agonist assay was conducted on fluorimeter instruments where the test compound, vehicle controls, and reference agonist were added to the assay plate after a fluorescence baseline was established. The agonist assay was used to assess each compound’s ability to activate each Ion Channel assayed. For the antagonist assay, the compound was pre-incubated for five minutes at room temperature, and then challenged with the EC80 concentration of the reference agonist after establishment of a fluorescence baseline. Vehicle controls and EC80 concentration of reference agonist were added to appropriate wells. The antagonist assay was used to assess each compound’s ability to inhibit activation by the corresponding Ion Channel agonist. ASIC3 ionflux antagonist assay: all recordings were obtained from a holding potential of -60 mV. The compound addition sequence was as follows: one addition of pH5.5 buffer was added to establish the baseline response, the test concentration of compound was applied for 30 s, followed by the addition of pH5.5 of compound for 2 s. Binding assays were performed in CHO cell cultures overexpressing human CGRPR, CB2 and M2 receptors. RGM8-51 (10 μM) was tested, and reference compounds used as control agonists and antagonists are detailed in Table 2, footnote. Binding assay results are expressed as a percent of control specific binding. […] Aqueous solubility (μM) was determined by comparing the peak area of the principal peak in a calibration standard (200 μM) containing organic solvent (methanol/water, 60/40, v/v) with the peak area of the corresponding peak in a buffer sample. Partition coefficient: the total amount of compound was determined as the peak area of the principal peak in a calibration standard (100 μM) containing organic solvent (methanol/water, 60/40, v/v). The amount of compound in buffer was determined as the combined, volume-corrected, and weighted areas of the corresponding peaks in the aqueous phases of three organic-aqueous samples of different composition. An automated weighting system was used to ensure the preferred use of raw data from those samples with well quantifiable peak signals. The amount of compound in organic phase was calculated by subtraction. Subsequently, Log D was calculated as the Log10 of the amount of compound in the organic phase divided by the amount of compound in the aqueous phase. […] Permeability was measured in CACO-2 monolayers. Percentage of compounds in the receptors wells was measured using HPLC. […] In vitro metabolism was measured in human liver microsomes. […] The apparent intrinsic clearance (CLint, in μL/min/mg) was calculated from the half-life time."}, "serum proteins": {"tested_on": "serum proteins", "assay": "Protein binding", "assay_type": "in vitro ADME, human"}, "rats": {"tested_on": "rats", "assay": "Behaviour observed after i.p. injection in the CCI study", "assay_type": "in vivo, rat", "details": "i.p. 30 mg/kg", "procedure": "This behavior lasted 3-5 min and could possibly be related to the TRPV1 agonist activity of compound RGM8-51.\nRats were allocated into 2 groups to receive RGM8-51 and vehicle (DMSO 2% i.pl., or 150 µL/kg i.p.) by either the i.pl. (10 µg in 20 µL; n = 5 animals) or i.p. (10 or 30 mg/kg in 150 µL/kg; n = 8 animals) route. Responses to cold/heat/mechanical stimulation were assessed 30 min before and 30 min after RGM8-51 or vehicle injection. Behavioral testing prior to drug administration served to ascertain baseline conditions and the stability of cold, heat and mechanical hypersensitivity after surgery. RGM-8-51 stock was prepared in DMSO (Sigma-Aldrich) and diluted in saline for injections. Data are given as the mean ± standard error of the mean (SEM) of the corresponding number of behavioral measurements/animals used. Statistical analysis was performed by using the paired t-test (GraphPad 8; San Diego, CA, USA)."}}, "note": "Several values for one entry are separate records, joined by “and”; a condition that tells them apart may be missing. Equal values may be shown once.", "data": [{"smiles": "C[C@@H]1C(=O)N(C[C@H](Cc2ccccc2)N(Cc2ccccc2)Cc2ccccc2)[C@]1(Cc1ccccc1)C(=O)OC(C)(C)C", "note": "[RGM8-51, 4(S)-Benzyl-3S-methyl-4-(tert-butoxy)carbonyl-1-[(2′S-dibenzylamino-3′-phenyl)prop-1′-yl]-2-oxoazetidine]", "values": [{"measurement": "permeation of CACO-2 cell monolayers", "setting": "CACO-2 cell monolayers", "value": "not able to permeate"}, {"measurement": "Permeability B-A (%)", "setting": "CACO-2 cell monolayers; CACO-2 cell monolayer", "value": 0, "unit": "%"}, {"measurement": "Permeability A-B (%)", "setting": "CACO-2 cell monolayers; CACO-2 cell monolayer, percentage of compound in the acceptor cell", "value": 0, "unit": "%"}, {"measurement": "Binding to proteins (%)", "setting": "serum proteins", "value": "100% and 99–100%"}, {"measurement": "duration of writhing behavior", "setting": "rats", "value": "3 to 5", "unit": "min"}, {"measurement": "writhing behavior", "setting": "rats", "value": "writhing behavior was observed in a small number of animals"}]}]}
